Data set [1] is described as follows: Stability in water/D2O buffered at different pH values, tracked by 1H NMR. It is filed as physicochemical. The text has this: The ^1H NMR spectra of NAC and the disulfide, trisulfide, and tetrasulfide of NAC had peaks at unique values for chemical shifts and allowed for their easy characterization (Figure 3). Pure chemicals of each sulfide were synthesized and characterized by ^1H and ^13C NMR spectroscopy as well as by high-resolution mass spectroscopy. The unique chemical shifts of the peaks for the Ha and Hb/Hc protons on the sulfides allowed the integration of each sulfide to be determined.
The stability of NAC trisulfide in water buffered at pH values of 5.8, 7.4, and 9.0 was measured.
The stability of cysteine trisulfide was investigated in buffered water at pH values of 5.8, 7.0, and 9.0. […] At pH values of 5.8, 7.0, and 9.0, the cysteine trisulfide was soluble and its ^1H NMR spectra were obtained.
The stability of glutathione trisulfide was investigated at pH values of 5.8, 7.4, and 9.0 (Figure S14a). The degradation of glutathione trisulfide was more rapid at pH values of 5.8 and 7.4 than that of the trisulfides of NAC and cysteine. At an acidic pH of 5.8, 71% of glutathione trisulfide degraded after 10 days. At pH values of 7.4 and 9.0, glutathione trisulfide degraded 79 and 81%, respectively, at day 9. […] The degradation of glutathione trisulfide reached an equilibrium of approximately 20% with the disulfide due to the reaction catalyzed by amine with elemental sulfur. Rate constants and half-lives were obtained for the degradation of glutathione trisulfide at each pH value using early data points unaffected by the equilibrium. At pH values of 5.8, 7.4, and 9.0, the estimated half-lives were 6.3 days (151 h), 0.90 days (21.6 h), and 0.79 days (19.0 h), respectively (Figure S14b).
The stability of NAC tetrasulfide was investigated in D2O buffered at pH values of 5.8, 7.4, and 9.0 (Figure S16a). At a pH of 5.8, NAC tetrasulfide degraded by 13% after 9 days. At pH values of 7.4 and 9.0, the tetrasulfide degraded by 55 and 52%, respectively, after 9 days. At each pH, the degradation product was NAC trisulfide, elemental sulfur, and a small amount of NAC disulfide (<3%). […] Estimated rate constants and half-lives for the degradation of NAC tetrasulfide at each pH were obtained. At pH values of 5.8, 7.4, and 9.0, the estimated half-lives were 53.3, 7.5, and 8.2 days, respectively (Figure S16b).

A short description of data set [2]: Degradation in the presence of butylamine under biologically relevant conditions (37 °C, pH 7.4). It is filed as physicochemical. The following applies: pH 7.4 D2O; for degraded: 10 mM. As to the method: To investigate how amines degrade polysulfides in the body, NAC trisulfide was dissolved in pH 7.4 in D2O at a concentration of 10 mM. […] Butylamine was added and the reaction was maintained at body temperature (37 °C). Degradation was tracked using ^1H NMR spectroscopy (Figure 8).
N-Acetylcysteine trisulfide (14.4 mg, 36 μmol) was dissolved in 3.6 mL of D2O buffered to pH 7.4. Butylamine (11 μL, 110 μmol) was added and the contents were heated to 37 °C. The ^1H NMR spectra were taken periodically to track degradation.

The text below walks through data of PMC8992272, “Stabilities of Three Key Biological Trisulfides with Implications for Their Roles in the Release of Hydrogen Sulfide and Bioaccumulation of Sulfane Sulfur” (ACS Omega, 2022).

Each structure is given as a SMILES string.

By half-life is commonly meant how long it takes for the measured level to halve.

On to `CC(=O)N[C@@H](CSSSC[C@H](NC(C)=O)C(=O)O)C(=O)O` [NAC trisulfide, N-Acetylcysteine Trisulfide], for which, in data set [1] (all pH values tested (abstract)), the stability entry is recorded as “stable”. In data set [1] (water buffered at pH 5.8, 7.4 and 9.0, after 8 days), the degradation entry was “no observable degradation”. In addition, the degraded is on record as 45% in data set [2] (after 1 h), 81% in data set [2] (after 2 h) and 81% in data set [2] (after 1 day). The half-life at 10 mM in data set [2] (D2O buffered to pH 7.4 with butylamine, early data points, read-out: estimated half-life (converted)) was 46.2 min.
